According to PMC10364322, “Evaluation of chronic drug-induced electrophysiological and cytotoxic effects using human-induced pluripotent stem cell-derived cardiomyocytes (hiPSC-CMs)” (Frontiers in Pharmacology, 2023):

Test system: hiPSC-CMs (iCell-Cardiomyocytes^2)
Assay: MEA impedance (cytotoxicity readout) in hiPSC-CMs
Settings: for effect on impedance: all concentrations tested, up to 96 h

Q: Which results are given for `Cc1cn(-c2cc(NC(=O)c3ccc(C)c(Nc4nccc(-c5cccnc5)n4)c3)cc(C(F)(F)F)c2)cn1` [Nilotinib]?
A: Imp (impedance), % change from baseline (0.01 µM, 2h): -2±3%; Imp (impedance), % change from baseline (0.01 µM, 24h): -14±3%; Imp (impedance), % change from baseline (0.01 µM, 48h): -4±4%; Imp (impedance), % change from baseline (0.01 µM, 72h): -4±15%; Imp (impedance), % change from baseline (0.01 µM, 96h): -3±15%; Imp (impedance), % change from baseline (0.1 µM, 2h): -2±3%; Imp (impedance), % change from baseline (0.1 µM, 24h): -12±3%; Imp (impedance), % change from baseline (0.1 µM, 48h): 4±10%; Imp (impedance), % change from baseline (0.1 µM, 72h): -6±4%; Imp (impedance), % change from baseline (0.1 µM, 96h): -1±5%; Imp (impedance), % change from baseline (0.3 µM, 2h): -1±3%; Imp (impedance), % change from baseline (0.3 µM, 24h): -11±5%; Imp (impedance), % change from baseline (0.3 µM, 48h): 3±7%; Imp (impedance), % change from baseline (0.3 µM, 72h): -2±4%; Imp (impedance), % change from baseline (0.3 µM, 96h): -1±5%; Imp (impedance), % change from baseline (1 µM, 2h): 4±7%; Imp (impedance), % change from baseline (1 µM, 24h): -8±6%; Imp (impedance), % change from baseline (1 µM, 48h): 13±17 %; Imp (impedance), % change from baseline (1 µM, 72h): 2±5 %; Imp (impedance), % change from baseline (1 µM, 96h): 4±14%; effect on impedance: without relevant changes to impedance

Q: With `N=C(N)c1ccc(OCCCCCOc2ccc(C(=N)N)cc2)cc1` [Pentamidine] as the compound, how does the “Imp (impedance), % change from baseline” value (0.1 µM, 2h) read?
A: The value was 6±3%.

Q: And the “Imp (impedance), % change from baseline” value (0.1 µM, 24h)?
A: The value was -2±5%.

Q: What about the “Imp (impedance), % change from baseline” value (0.1 µM, 48h) of the same compound?
A: The value was -5±4%.

Q: What about the “Imp (impedance), % change from baseline” value (0.1 µM, 72h) of the same compound?
A: Its value is -6±3%.

Q: What about the “Imp (impedance), % change from baseline” value (0.1 µM, 96h) of the same compound?
A: The value was 1±6%.

Q: What about the “Imp (impedance), % change from baseline” value (0.3 µM, 2h) of the same compound?
A: Its value is 6±2%.

Q: And the “Imp (impedance), % change from baseline” value (0.3 µM, 24h)?
A: Its value is -3±4%.

Q: What about the “Imp (impedance), % change from baseline” value (0.3 µM, 48h) of the same compound?
A: The value was -4±4%.

Q: What about the “Imp (impedance), % change from baseline” value (0.3 µM, 72h) of the same compound?
A: The value was -8±5%.

Q: What about the “Imp (impedance), % change from baseline” value (0.3 µM, 96h) of the same compound?
A: The value was -5±3%.

Q: And the “Imp (impedance), % change from baseline” value (1 µM, 2h)?
A: Its value is 5±2%.

Q: What about the “Imp (impedance), % change from baseline” value (1 µM, 24h) of the same compound?
A: Its value is -4±3%.

Q: And the “Imp (impedance), % change from baseline” value (1 µM, 48h)?
A: Its value is -6±4%.

Q: And the “Imp (impedance), % change from baseline” value (1 µM, 72h)?
A: The value was -13±3%.

Q: What about the “Imp (impedance), % change from baseline” value (1 µM, 96h) of the same compound?
A: The value was -18±5%.

Q: And the “Imp (impedance), % change from baseline” value (3 µM, 72h)?
A: Its value is -28±8 %.

Q: What about the “Imp (impedance), % change from baseline” value (3 µM, 96h) of the same compound?
A: The value was -42±9 %.

Q: And the “Imp (impedance), % change from baseline” value (3 µM, 2h)?
A: Its value is 5±2%.

Q: And the “Imp (impedance), % change from baseline” value (3 µM, 24h)?
A: Its value is -4±2%.

Q: And the “Imp (impedance), % change from baseline” value (3 µM, 48h)?
A: The value was -7±6%.

Q: For `CC(C)(Sc1cc(C(C)(C)C)c(O)c(C(C)(C)C)c1)Sc1cc(C(C)(C)C)c(O)c(C(C)(C)C)c1` [Probucol], which “Imp (impedance), % change from baseline” value (0.3 µM, 2h) is on record?
A: The value was 2±2%.

Q: And the “Imp (impedance), % change from baseline” value (0.3 µM, 24h)?
A: The value was -4±4%.

Q: What about the “Imp (impedance), % change from baseline” value (0.3 µM, 48h) of the same compound?
A: The value was -3±7 %.

Q: And the “Imp (impedance), % change from baseline” value (0.3 µM, 72h)?
A: The value was -4±6%.

Q: What about the “Imp (impedance), % change from baseline” value (0.3 µM, 96h) of the same compound?
A: Its value is -3±10%.

Q: And the “Imp (impedance), % change from baseline” value (1 µM, 2h)?
A: The value was -1±2%.

Q: What about the “Imp (impedance), % change from baseline” value (1 µM, 24h) of the same compound?
A: Its value is -6±4%.

Q: And the “Imp (impedance), % change from baseline” value (1 µM, 48h)?
A: Its value is -3±3%.

Q: What about the “Imp (impedance), % change from baseline” value (1 µM, 72h) of the same compound?
A: Its value is -8±3%.

Q: And the “Imp (impedance), % change from baseline” value (1 µM, 96h)?
A: Its value is -2±5%.

Q: And the “Imp (impedance), % change from baseline” value (3 µM, 72h)?
A: The value was -10±2%.

Q: What about the “Imp (impedance), % change from baseline” value (3 µM, 96h) of the same compound?
A: The value was -7±2%.

Q: What about the “Imp (impedance), % change from baseline” value (3 µM, 2h) of the same compound?
A: Its value is -2±3%.

Q: What about the “Imp (impedance), % change from baseline” value (3 µM, 24h) of the same compound?
A: Its value is -7±4%.

Q: And the “Imp (impedance), % change from baseline” value (3 µM, 48h)?
A: The value was -5±4%.

Q: And the “Imp (impedance), % change from baseline” value (10 µM, 2h)?
A: The value was -3±1%.

Q: What about the “Imp (impedance), % change from baseline” value (10 µM, 24h) of the same compound?
A: The value was -7±4%.

Q: And the “Imp (impedance), % change from baseline” value (10 µM, 48h)?
A: Its value is -4±4%.

Q: And the “Imp (impedance), % change from baseline” value (10 µM, 72h)?
A: The value was -12±3%.

Q: What about the “Imp (impedance), % change from baseline” value (10 µM, 96h) of the same compound?
A: Its value is -8±4%.

Q: Which results are given for `CCN(CC)CCNC(=O)c1c(C)[nH]c(/C=C2\C(=O)Nc3ccc(F)cc32)c1C` [Sunitinib]?
A: Imp (impedance), % change from baseline (0.03 µM, 2h): 5±4%; Imp (impedance), % change from baseline (0.03 µM, 24h): -12±3%; Imp (impedance), % change from baseline (0.03 µM, 48h): -8±6%; Imp (impedance), % change from baseline (0.03 µM, 72h): -8±4%; Imp (impedance), % change from baseline (0.03 µM, 96h): -4±4%; Imp (impedance), % change from baseline (0.1 µM, 2h): 6±3%; Imp (impedance), % change from baseline (0.1 µM, 24h): -10±4%; Imp (impedance), % change from baseline (0.1 µM, 48h): -7±4%; Imp (impedance), % change from baseline (0.1 µM, 72h): -5±3%; Imp (impedance), % change from baseline (0.1 µM, 96h): -2±3%; Imp (impedance), % change from baseline (0.3 µM, 2h): 5±6%; Imp (impedance), % change from baseline (0.3 µM, 24h): -7±3%; Imp (impedance), % change from baseline (0.3 µM, 48h): -3±5%; Imp (impedance), % change from baseline (0.3 µM, 72h): -3±2%; Imp (impedance), % change from baseline (0.3 µM, 96h): -3±3%; Imp (impedance), % change from baseline (1 µM, 2h): 12±7%; Imp (impedance), % change from baseline (1 µM, 24h): -9±6%; Imp (impedance), % change from baseline (1 µM, 48h): -7±7%; Imp (impedance), % change from baseline (1 µM, 72h): -8±7%; Imp (impedance), % change from baseline (1 µM, 96h): -5±6%; effect on impedance: did not cause significant changes in the impedance signal
